The values below come from patent publication JPH01254654A, “スルホン酸の誘導体及びその塩” (Dainippon Pharmaceutical Co Ltd, priority 1988, dated 1989).

SMILES strings stand for the structures.

For experiment [1] the following is noted: intracerebroventricular or parenteral administration; cited from earlier work.
A short description of experiment [2]: Analgesic action on oral administration (mean writhing number; method of JP 62-270555). To be noted: 200mg/kg. The class given is in vivo.

Take `O=C(O)CNC(=O)C(CS)Cc1ccccc1` (racemic) [チオルファン, ((It、L)−2−メルカプトメチル−3−フェニルプロピオニル〕グリシン]: the analgesic action result in experiment [1] is “鎮痛作用を有する”.

For the compound `CC(=O)SCC(CC1CN(Cc2ccccc2)CCO1)C(=O)Nc1ccc(S(=O)(=O)[O-])cc1.[Na+]` (centres unmarked) [実施例1], the “inhibition rate (analgesic action; (A-B) x 100/A, A: mean writhing number of control group, B: that of test substance group)” value in experiment [2] is reported as 61.6 χ.
